Target: T1, Dimer of Gag-Pol polyprotein [501-599,Q508K,L534I,L564I,C568A,C596A] (Human immunodeficiency virus 1, UniProt P03367, C568A/C596A/L534I/L564I/Q508K)
T1 construct: 501-599
Assay: Protease Inhibition Assay
Details: pH 6.4; 25 °C
Procedure: The Ki values were determined using fluorogenic substrate, 2-(aminobenzoyl)-Thr-Ile-Nle-Phe(p-NO2)-Gln-ArgNH2. A standard curve relating changes in fluorescent intensity to changes in concentration of product was used to convert fluorescent changes into molar velocities. The amount of cleavage was determined by HPLC.

COc1ccc(S(=O)(=O)N(CC2CCCC2)C[C@@H](O)CN2C(=O)C3(CCOCC3)OC[C@@H]2Cc2ccccc2)cc1 [(2S)-3-[(3S)-3-benzyl-5-oxo-1,9-dioxa-4-azaspiro[5.5]undecan-4-yl]-N-(cyclopentylmethyl)-2-hydroxy-N-(4-methoxyphenyl)propane-1-sulfonamido] was tested, and the Ki was 23 nM.
Compound COc1ccc(S(=O)(=O)N(CC2CCCC2)C[C@@H](O)CN2C(=O)COC[C@@H]2Cc2ccccc2)cc1 has a Ki of 1000 nM.

Source: BindingDB's records for doi:10.1016/j.bmcl.2006.07.014 (Glaxosmithkline, 2006)
